Assay [1] deals with T1, WRN [UniPro: Q14191 (WRN_HUMAN), N500-C946] (Homo sapiens (Human), UniProt Q14191). Nature of the assay: WRN ATPase assay (ADP-Glo). The format is biochemical. As to conditions: WRN enzymatic activity assay.
The target in assay [2] is T1, WRN [UniPro: Q14191 (WRN_HUMAN), N500-C946]. Kind of assay: WRN unwinding assay (FORKF DNA, fluorescence). The format is biochemical. Particulars: Table 14.

As a reminder, the IC50 is the point on the concentration scale where inhibition reaches its midpoint. Read a low IC50 as greater potency.

T1 sequence (Q14191 500-946): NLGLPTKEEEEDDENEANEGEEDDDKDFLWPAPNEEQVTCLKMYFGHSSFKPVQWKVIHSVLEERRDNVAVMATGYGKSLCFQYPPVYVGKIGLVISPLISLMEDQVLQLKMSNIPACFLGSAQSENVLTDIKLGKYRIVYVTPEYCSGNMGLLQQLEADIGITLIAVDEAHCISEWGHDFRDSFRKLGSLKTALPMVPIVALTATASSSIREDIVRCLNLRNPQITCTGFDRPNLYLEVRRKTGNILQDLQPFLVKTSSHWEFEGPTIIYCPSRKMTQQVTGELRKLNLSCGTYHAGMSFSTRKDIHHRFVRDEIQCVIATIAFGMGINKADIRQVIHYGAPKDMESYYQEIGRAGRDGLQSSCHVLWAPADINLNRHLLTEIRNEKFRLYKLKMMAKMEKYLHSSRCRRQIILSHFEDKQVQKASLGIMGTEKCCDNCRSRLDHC

Regarding `CCc1c(N2CCN(C(=O)CNC(=O)c3ncco3)CC2)c(=O)n2nc(C3=CCOCC3)nc2n1CC(=O)Nc1ccc(C(F)(F)F)cc1F` [Example 217, N-(2-(4-(2-(3,6-Dihydro-2H-pyran-4-yl)-5-ethyl-4-(2-((2-fluoro-4-(trifluoromethyl)phenyl)amino)-2-oxoethyl)-7-oxo-4,7-dihydro-[1,2,4]triazolo[1,5-a]pyrimidin-6-yl)piperazin-1-yl)-2-oxoethyl)oxazole-2-carboxamide], the concentration for half-maximal inhibition (IC50) in assay [1] and in assay [2] was less than 100 nM throughout.

Consider `CCc1c(N2CCN(C(=O)CNC(=O)c3cc(C)on3)CC2)c(=O)n2nc(C3=CCOCC3)nc2n1CC(=O)Nc1ccc(C(F)(F)F)cc1F` [Example 218, N-(2-(4-(2-(3,6-Dihydro-2H-pyran-4-yl)-5-ethyl-4-(2-((2-fluoro-4-(trifluoromethyl)phenyl)amino)-2-oxoethyl)-7-oxo-4,7-dihydro-[1,2,4]triazolo[1,5-a]pyrimidin-6-yl)piperazin-1-yl)-2-oxoethyl)-5-methylisoxazole-3-carboxamide], for which the IC50 in assay [1] and in assay [2] was less than 100 nM in each case.

Turning to `CCc1c(N2CCN(C(=O)CNC(=O)c3ccns3)CC2)c(=O)n2nc(C3=CCOCC3)nc2n1CC(=O)Nc1ccc(C(F)(F)F)cc1F` [Example 219, N-(2-(4-(2-(3,6-Dihydro-2H-pyran-4-yl)-5-ethyl-4-(2-((2-fluoro-4-(trifluoromethyl)phenyl)amino)-2-oxoethyl)-7-oxo-4,7-dihydro-[1,2,4]triazolo[1,5-a]pyrimidin-6-yl)piperazin-1-yl)-2-oxoethyl)isothiazole-5-carboxamide], the half-maximal inhibitory concentration (IC50) in assay [1] and in assay [2] was less than 100 nM in each case.

As for `CCc1c(N2CCN(C(=O)CNC(=O)c3ccno3)CC2)c(=O)n2nc(C3=CCOCC3)nc2n1CC(=O)Nc1ccc(C(F)(F)F)cc1F` [Example 220, N-(2-(4-(2-(3,6-Dihydro-2H-pyran-4-yl)-5-ethyl-4-(2-((2-fluoro-4-(trifluoromethyl)phenyl)amino)-2-oxoethyl)-7-oxo-4,7-dihydro-[1,2,4]triazolo[1,5-a]pyrimidin-6-yl)piperazin-1-yl)-2-oxoethyl)isoxazole-5-carboxamide], the half-maximal inhibitory concentration (IC50) in assay [1] and in assay [2] was less than 100 nM each time.

`CCc1c(N2CCN(C(=O)CNC(=O)c3ccon3)CC2)c(=O)n2nc(C3=CCOCC3)nc2n1CC(=O)Nc1ccc(C(F)(F)F)cc1F` [Example 221, N-(2-(4-(2-(3,6-Dihydro-2H-pyran-4-yl)-5-ethyl-4-(2-((2-fluoro-4-(trifluoromethyl)phenyl)amino)-2-oxoethyl)-7-oxo-4,7-dihydro-[1,2,4]triazolo[1,5-a]pyrimidin-6-yl)piperazin-1-yl)-2-oxoethyl)isoxazole-3-carboxamide]: the IC50 in assay [1] and in assay [2] was less than 100 nM throughout.

Consider `CCc1c(N2CCN(C(=O)CNC(=O)c3ncnc(C)c3O)CC2)c(=O)n2nc(C3=CCOCC3)nc2n1CC(=O)Nc1ccc(C(F)(F)F)cc1F` [Example 222, N-(2-(4-(2-(3,6-Dihydro-2H-pyran-4-yl)-5-ethyl-4-(2-((2-fluoro-4-(trifluoromethyl)phenyl)amino)-2-oxoethyl)-7-oxo-4,7-dihydro-[1,2,4]triazolo[1,5-a]pyrimidin-6-yl)piperazin-1-yl)-2-oxoethyl)-5-hydroxy-6-methylpyrimidine-4-carboxamide], for which the half-maximal inhibitory concentration (IC50) in assay [1] and in assay [2] was less than 100 nM each time.

On to `CCc1c(N2CCN(C(=O)CNC(=O)c3cc(N(C)C)ccc3F)CC2)c(=O)n2nc(C3=CCOCC3)nc2n1CC(=O)Nc1ccc(C(F)(F)F)cc1F` [Example 224, N-(2-(4-(2-(3,6-Dihydro-2H-pyran-4-yl)-5-ethyl-4-(2-((2-fluoro-4-(trifluoromethyl)phenyl)amino)-2-oxoethyl)-7-oxo-4,7-dihydro-[1,2,4]triazolo[1,5-a]pyrimidin-6-yl)piperazin-1-yl)-2-oxoethyl)-5-(dimethylamino)-2-fluorobenzamide], for which the half-maximal inhibitory concentration (IC50) is less than 100 nM in assay [1] and 100 to 1000 nM in assay [2].

For `[2H]C([2H])(NC(=O)c1ccccc1F)C(=O)N1CCN(c2c(CC)n(C([2H])([2H])C(=O)Nc3ccc(C(F)(F)F)cc3F)c3nc(C4=CCOCC4)nn3c2=O)CC1` [Example 225, N-(2-(4-(2-(3,6-Dihydro-2H-pyran-4-yl)-5-ethyl-4-(2-((2-fluoro-4-(trifluoromethyl)phenyl)amino)-2-oxoethyl-1,1-d2)-7-oxo-4,7-dihydro-[1,2,4]triazolo[1,5-a]pyrimidin-6-yl)piperazin-1-yl)-2-oxoethyl-1,1-d2)-2-fluorobenzamide], the IC50 in assay [1] and in assay [2] was less than 100 nM each time.

As for `CCc1c(N2CCN(C(=O)C(=O)Nc3ncco3)CC2)c(=O)n2nc(C3=CCOCC3)nc2n1CC(=O)Nc1ccc(C(F)(F)F)cc1Cl` [Example 226, 2-(4-(4-(2-((2-Chloro-4-(trifluoromethyl)phenyl)amino)-2-oxoethyl)-2-(3,6-dihydro-2H-pyran-4-yl)-5-ethyl-7-oxo-4,7-dihydro-[1,2,4]triazolo[1,5-a]pyrimidin-6-yl)piperazin-1-yl)-N-(oxazol-2-yl)-2-oxoacetamide], the IC50 in assay [1] and in assay [2] was less than 100 nM each time.

As for `CCc1c(N2CCN(C(=O)C(=O)Nc3nccs3)CC2)c(=O)n2nc(C3=CCOCC3)nc2n1CC(=O)Nc1ccc(C(F)(F)F)cc1F` [Example 227, 2-(4-(2-(3,6-Dihydro-2H-pyran-4-yl)-5-ethyl-4-(2-((2-fluoro-4-(trifluoromethyl)phenyl)amino)-2-oxoethyl)-7-oxo-4,7-dihydro-[1,2,4]triazolo[1,5-a]pyrimidin-6-yl)piperazin-1-yl)-2-oxo-N-(thiazol-2-yl)acetamide], the IC50 in assay [1] and in assay [2] was less than 100 nM throughout.

Consider `CCc1c(N2CCN(C(=O)C(=O)Nc3ncco3)CC2)c(=O)n2nc(C3=CCOCC3)nc2n1CC(=O)Nc1ccc(C(F)(F)F)cc1F` [Example 228, 2-(4-(2-(3,6-Dihydro-2H-pyran-4-yl)-5-ethyl-4-(2-((2-fluoro-4-(trifluoromethyl)phenyl)amino)-2-oxoethyl)-7-oxo-4,7-dihydro-[1,2,4]triazolo[1,5-a]pyrimidin-6-yl)piperazin-1-yl)-N-(oxazol-2-yl)-2-oxoacetamide], for which the half-inhibitory concentration (IC50) in assay [1] and in assay [2] was less than 100 nM each time.

As to `CCc1c(N2CCN(C(=O)C(=O)Nc3ccccn3)CC2)c(=O)n2nc(C3=CCOCC3)nc2n1CC(=O)Nc1ccc(C(F)(F)F)cc1F` [Example 229, 2-(4-(2-(3,6-Dihydro-2H-pyran-4-yl)-5-ethyl-4-(2-((2-fluoro-4-(trifluoromethyl)phenyl)amino)-2-oxoethyl)-7-oxo-4,7-dihydro-[1,2,4]triazolo[1,5-a]pyrimidin-6-yl)piperazin-1-yl)-2-oxo-N-(pyridin-2-yl)acetamide], the half-maximal inhibitory concentration (IC50) was 100 to 1000 nM in assay [1] and less than 100 nM in assay [2].

As to `CCc1c(N2CCN(C(=O)CNC(=O)c3ccccc3)CC2)c(=O)n2nc(N3CCOCC3)nc2n1CC(=O)Nc1ccc(C(F)(F)F)cc1Cl` [Example 231, N-(2-(4-(4-(2-((2-Chloro-4-(trifluoromethyl)phenyl)amino)-2-oxoethyl)-5-ethyl-2-morpholino-7-oxo-4,7-dihydro-[1,2,4]triazolo[1,5-a]pyrimidin-6-yl)piperazin-1-yl)-2-oxoethyl)benzamide], the half-maximal inhibitory concentration (IC50) in assay [1] and in assay [2] was less than 100 nM each time.

For `CCc1c(N2CCN(C(=O)CNC(=O)c3ccccc3)CC2)c(=O)n2nc(N3Cc4ccncc4C3)nc2n1CC(=O)Nc1ccc(C(F)(F)F)cc1Cl` [Example 232, N-(2-(4-(4-(2-((2-Chloro-4-(trifluoromethyl)phenyl)amino)-2-oxoethyl)-2-(1,3-dihydro-2H-pyrrolo[3,4-c]pyridin-2-yl)-5-ethyl-7-oxo-4,7-dihydro-[1,2,4]triazolo[1,5-a]pyrimidin-6-yl)piperazin-1-yl)-2-oxoethyl)benzamide], the concentration for half-maximal inhibition (IC50) in assay [1] and in assay [2] was less than 100 nM throughout.

In the case of `CCc1c(N2CCN(C(=O)CNC(=O)c3ccccc3)CC2)c(=O)n2nc(N3CC4COCC4C3)nc2n1CC(=O)Nc1ccc(C(F)(F)F)cc1Cl` (stereo not drawn) [Example 233, N-(2-(4-(4-(2-((2-Chloro-4-(trifluoromethyl)phenyl)amino)-2-oxoethyl)-5-ethyl-7-oxo-2-(tetrahydro-1H-furo[3,4-c]pyrrol-5 (3H)-yl)-4,7-dihydro-[1,2,4]triazolo[1,5-a]pyrimidin-6-yl)piperazin-1-yl)-2-oxoethyl)benzamide], the half-inhibitory concentration (IC50) in assay [1] and in assay [2] was less than 100 nM throughout.

As to `CCc1c(N2CCN(C(=O)CNC(=O)c3ccccc3)CC2)c(=O)n2nc(N3CCc4ncccc43)nc2n1CC(=O)Nc1ccc(C(F)(F)F)cc1Cl` [Example 234, N-(2-(4-(4-(2-((2-Chloro-4-(trifluoromethyl)phenyl)amino)-2-oxoethyl)-2-(2,3-dihydro-1H-pyrrolo[3,2-b]pyridin-1-yl)-5-ethyl-7-oxo-4,7-dihydro-[1,2,4]triazolo[1,5-a]pyrimidin-6-yl)piperazin-1-yl)-2-oxoethyl)benzamide], the figures for the concentration for half-maximal inhibition (IC50) in assay [1] and in assay [2] were 100 to 1000 nM and less than 100 nM, respectively.

Take `CCc1c(N2CCN(C(=O)CNC(=O)c3ccccc3)CC2)c(=O)n2nc(N3CC4(COC4)C3)nc2n1CC(=O)Nc1ccc(C(F)(F)F)cc1Cl` [Example 235, N-(2-(4-(4-(2-((2-Chloro-4-(trifluoromethyl)phenyl)amino)-2-oxoethyl)-5-ethyl-7-oxo-2-(2-oxa-6-azaspiro[3.3]heptan-6-yl)-4,7-dihydro-[1,2,4]triazolo[1,5-a]pyrimidin-6-yl)piperazin-1-yl)-2-oxoethyl)benzamide]: the half-maximal inhibitory concentration (IC50) in assay [1] and in assay [2] was 100 to 1000 nM throughout.

In the case of `CCc1c(N2CCN(C(=O)CNC(=O)c3ccccc3)CC2)c(=O)n2nc(-c3cnc4c(c3)CCCO4)nc2n1CC(=O)Nc1ccc(C(F)(F)F)cc1Cl` [Example 236, N-(2-(4-(4-(2-((2-Chloro-4-(trifluoromethyl)phenyl)amino)-2-oxoethyl)-2-(3,4-dihydro-2H-pyrano[2,3-b]pyridin-6-yl)-5-ethyl-7-oxo-4,7-dihydro-[1,2,4]triazolo[1,5-a]pyrimidin-6-yl)piperazin-1-yl)-2-oxoethyl)benzamide], the IC50 in assay [1] and in assay [2] was 100 to 1000 nM each time.

The record behind these values is patent US20260015358A1, “BICYCLIC DERIVATIVES, COMPOSITIONS AND USES THEREOF” (Danatlas Pharmaceuticals Co., Ltd., priority 2023, published 2026).
